Converted amounts (≈) assume the structure as drawn. Where two headings read alike, the source gives them in different places.
What was measured:
ChDHFR-TS = ChDHFR-TS (Cryptosporidium hominis, UniProt Q27552); experiment: ChDHFR enzyme inhibition assay; assay type: biochemical
Procedure: (§1) Enzyme and inhibitor were allowed to incubate for 5 min before adding dihydrofolate to initiate the reaction. Enzyme assays were performed at least four times. IC50 values and their standard deviations were calculated in the presence of varying concentrations of inhibitor near the IC50 concentration.
Compounds were evaluated in spectrophotometric enzyme assays using ChDHFR-TS and hDHFR. Inhibition constants (IC50) were measured (see Table 4). […] The compound abbreviations in Table 4 refer to the following compounds: […]

CgDHFR = CgDHFR (Candida glabrata (strain ATCC 2001 / BCRC 20586 / JCM 3761 / NBRC 0622 / NRRL Y-65 / CBS 138) (Yeast) (Nakaseomyces glabratus), UniProt Q6FPH0); experiment: biochemical
Excerpt: CgDHFR: The gene coding CgDHFR was amplified by PCR from C. glabrata genomic DNA obtained from ATCC. The gene was inserted in a pET41 vector that includes a C-terminal histidine tag for nickel affinity chromatography. E. coli cells were transformed and the resulting plasmid was verified by sequencing. The protein was expressed in E. coli BL21(DE3) cells with isopropyl β-D-thiogalactoside induction. Following growth, the cells were lysed with BugBuster (Novagen) and centrifuged; the supernatant was loaded on a Ni-NTA column. The column was washed with 20 mM Tris (pH 8.0)/0.4 M NaCl and the protein was eluted using a gradient of 20 mM Tris (pH 8.0), 0.3 M NaCl, 20% glycerol, 0.1 mM EDTA, 2 mM DTT, 250 mM imidazole. Fractions containing CgDHFR were identified by SDS-PAGE, combined and desalted using a PD-10 column with a buffer containing 20 mM Tris pH 8.0, 20% glycerol, 0.1 mM EDTA and 2 mM DTT. The protein was concentrated to 13 mg/mL.
as §1

C. glabrata = experiment: Antifungal assay (MIC, Alamar Blue); assay type: cell-based, Candida glabrata; conditions: for MIC (Cg): YM media
Procedure: Antifungal assays were performed using C. glabrata as a suspension in 50% glycerol at −78° C. For susceptibility testing, a streak of stock culture was made on SDA agar and grown at 30° C. for 48 h. One pure colony of the test organism was recovered from the plate, suspended in appropriate media and grown in a 5 mL shake flask culture. A sample of the shake flask culture was diluted to 1×10^5 cells/mL in media and added to 96-well test plates (100 μL per well) containing test compounds dispensed in DMSO (1 μL). Amphotericin and ketoconazole were used as controls. After an incubation period determined from the strain specific doubling time, Alamar Blue (10 μL) was added, allowed to incubate; each well was scored for dye reduction.
Several representative compounds were also evaluated in thymidine-depleted media. It has been shown that high levels of thymidine interfere with accurate susceptibility testing of antifolates. To compensate for this, antifolates are frequently evaluated in a controlled minimal media with a low thymidine concentration. […] In addition, the compounds were also evaluated for mammalian cell toxicity using MCF-10 and HepG2 cell lines. Cellular selectivity is reported as the IC50 value for the MCF-10 human cell line divided by the MIC value (μg/mL) (Table 8).

hDHFR = hDHFR (Homo sapiens (Human), UniProt P00374); experiment: hDHFR enzyme inhibition assay; assay type: biochemical; conditions: read-out: IC50 (hDHFR)
Procedure: hDHFR: The gene for hDHFR was amplified using PCR from cDNA obtained from ATCC. The gene was inserted in a pET41 vector with a C-terminal histidine tag for affinity chromatography. The resulting construct was verified by sequencing. The hDHFR protein was expressed in E. coli and purified using a nickel affinity column.
as §1
Enzyme inhibition assays were performed by monitoring the rate of NADPH oxidation by the DHFR enzyme at an absorbance of 340 nm. Assays were performed in the presence of saturating concentrations of NADPH and initiated with dihydrofolate. All assays were completed at 25° C. in a buffer containing 20 mM TES pH 7.0, 50 mM KCl, 10 mM 2-mercaptoethanol, 0.5 mM EDTA and 1 mg/mL BSA. Inhibition was measured at least three times with inhibitor concentrations near the IC50 value and the average IC50 value is reported with a standard deviation.

MCF-10 cells = experiment: Mammalian cell toxicity, MCF-10; assay type: cell-based, human; conditions: cytotoxicity, Table 6
Procedure: Adherent cell lines were maintained in Eagle's Minimal Essential Media (Sigma-Aldrich, St. Louis, Mo., USA) with 2 mM glutamine and Earle's Balanced Salt Solution (HyClone, Logan, Utah, USA) adjusted to contain 1.5 g/L sodium bicarbonate, 0.1 mM non-essential amino acids, 1 mM sodium pyruvate and 10% fetal calf serum. Fetal calf serum used in these assays was lot matched throughout. […] Toxicity assays were conducted between passages 10-20. Target compound toxicity was measured by incubating the test compound with the cells for 4 h, washing the cells and finally treating the cells with Alamar Blue. After 12-24 h, the fluorescence of the reduced dye was measured. Fluorescence intensity as a function of test compound concentration was fit to the Fermi equation, using non-linear least squares regression analysis, to estimate IC50 values.

S. aureus 13709 (MRSA) = experiment: Antibacterial MIC, broth microdilution with Alamar Blue; assay type: cell-based, Staphylococcus aureus
Procedure: (§2) For susceptibility testing, 10 μL of glycerol stock was suspended in a 10 mL shake flask culture of chemically defined Isosensitest broth (Oxoid) supplemented with 2% w/v glucose. A sample of the shake flask culture was diluted to 1×10^6 cells/mL in media and added to 96-well test plates (100 μL per well) containing test compounds dispensed in DMSO (2 μL). After an incubation period (30° C.) determined from the strain specific doubling time, a 0.03% w/v aqueous solution of resazurin (10 μL) was added and the plates were allowed to incubate; each well was then scored for dye reduction.

Streptococcus pyogenes = experiment: as above; assay type: cell-based
Procedure: as §2

[1] = C. glabrata, Inact: not active at 2 mM (~600 μg/mL)
[2] = Table 7, read-out: IC50 (CgDHFR)

CgDHFR, sequence (Q6FPH0 1-217): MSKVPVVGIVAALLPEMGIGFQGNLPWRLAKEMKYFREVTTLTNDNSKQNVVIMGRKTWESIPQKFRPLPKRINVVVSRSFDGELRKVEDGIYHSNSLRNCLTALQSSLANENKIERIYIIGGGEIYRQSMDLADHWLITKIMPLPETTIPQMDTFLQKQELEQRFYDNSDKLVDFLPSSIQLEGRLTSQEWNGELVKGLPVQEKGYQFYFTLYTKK
ChDHFR-TS, sequence (Q27552 1-521): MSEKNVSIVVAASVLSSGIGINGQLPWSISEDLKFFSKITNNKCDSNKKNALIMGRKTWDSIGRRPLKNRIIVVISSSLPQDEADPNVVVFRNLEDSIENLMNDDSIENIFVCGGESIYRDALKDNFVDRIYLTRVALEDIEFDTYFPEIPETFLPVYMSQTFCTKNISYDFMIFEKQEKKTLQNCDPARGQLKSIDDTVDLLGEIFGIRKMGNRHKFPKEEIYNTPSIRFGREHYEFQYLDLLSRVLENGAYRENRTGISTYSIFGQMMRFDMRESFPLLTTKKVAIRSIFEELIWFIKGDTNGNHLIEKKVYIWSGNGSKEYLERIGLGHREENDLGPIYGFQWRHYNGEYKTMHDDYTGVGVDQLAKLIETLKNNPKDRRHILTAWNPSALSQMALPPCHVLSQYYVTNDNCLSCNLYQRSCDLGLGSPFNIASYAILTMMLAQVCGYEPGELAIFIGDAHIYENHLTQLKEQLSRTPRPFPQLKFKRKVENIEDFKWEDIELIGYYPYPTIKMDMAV
hDHFR, sequence (P00374 whole entry): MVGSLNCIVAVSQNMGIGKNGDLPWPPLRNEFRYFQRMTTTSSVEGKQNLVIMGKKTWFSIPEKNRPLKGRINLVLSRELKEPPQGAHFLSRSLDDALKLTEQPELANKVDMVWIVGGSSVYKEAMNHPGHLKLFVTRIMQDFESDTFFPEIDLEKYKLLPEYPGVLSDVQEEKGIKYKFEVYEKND

**Q.** How did the IC50 (ChDHFR-TS; read-out: IC50 against ChDHFR) turn out when `COc1cc(C(C)c2cnc(N)nc2N)cc(OC)c1OC` (racemic) [C7-methyl TMP (rac), reference compound] was run?
**A.** The IC50 was 340000 nM.

**Q.** What does the source list for `CCc1nc(N)nc(N)c1C#CCc1cc(OC)ccc1OC` [Compound 11]?
**A.** IC50 (CgDHFR; Table 3, read-out: CgDHFR IC50): 8.2 nM; IC50 (CgDHFR; read-out: IC50 against CgDHFR): ≤ 25 nM; Antifungal activity MIC (C. glabrata; [1]): 78 µg/mL

**Q.** What does the source list for `COc1cc(-c2ccccc2C)ccc1C(C)C#Cc1c(C)nc(N)nc1N` (stereo not shown) [Compound F2M, 5-[3-(3-methoxy-2′-methylbiphenyl-4-yl)but-1-yn-1-yl]-6-methylpyrimidine-2,4-diamine]?
**A.** IC50 (ChDHFR-TS; IC50 (ChDHFR), Table 4): 36 ± 0.6 nM; Selectivity Ratio (IC50 ChDHFR/IC50 hDHFR) (ChDHFR-TS; Table 4): 77

**Q.** Which results are given for `COc1cc(C(C)C#Cc2cnc(N)nc2N)cc(OC)c1OC` (stereo not shown) [Compound 2, 2,4-Diamino-5-(3-(3,4,5-trimethoxyphenyl)but-1-ynyl)pyrimidine]?
**A.** IC50 (CgDHFR; Table 3, read-out: CgDHFR IC50): 36 nM; Antifungal activity MIC (C. glabrata; [1]): Inact

**Q.** `CCc1nc(N)nc(N)c1C#CC(C)c1cc(OC)cc(N2C[C@@H](C)O[C@@H](C)C2)c1` (mixture of isomers) [Compound 157] was tested. Which Selectivity (CgDHFR; Table 7, hDHFR vs CgDHFR) did it give?
**A.** The Selectivity was 5.0 ± 1.

**Q.** What about the IC50 (CgDHFR; [2]) of the same compound?
**A.** Its IC50 is 38 ± 2 nM.

**Q.** And the “MIC (Cg)” value (C. glabrata; C. glabrata)?
**A.** Its value is 13 µg/mL (≈ 31.7 µM).

**Q.** And the IC50 (hDHFR; Table 7)?
**A.** Its IC50 is 200 ± 4.5 nM.

**Q.** How did the IC50 (ChDHFR-TS; IC50 against ChDHFR) turn out when `CN(Cc1cnc2nc(N)nc(N)c2n1)c1ccc(C(=O)N[C@@H](CCC(=O)O)C(=O)O)cc1` [methotrexate, (S)-2-(4-(((2,4-diaminopteridin-6-yl)methyl)methylamino)benzamido)pentanedioic acid, reference compound] was run?
**A.** Its IC50 is 23 nM.

**Q.** How did the IC50 (CgDHFR; Table 3, read-out: CgDHFR IC50) turn out when `COc1cc(C(O)C#Cc2cnc(N)nc2N)cc(OC)c1OC` (stereo not shown) [Compound 3, 3-(2,4-diaminopyrimidin-5-yl)-1-(3,4,5-trimethoxyphenyl)prop-2-yn-1-ol] was run?
**A.** Its IC50 is 2700 nM.

**Q.** And the MIC (C. glabrata; Nakaseomyces glabratus, C. glabrata, Inact: not active at 2 mM (~600 μg/mL), read-out: Antifungal activity MIC)?
**A.** Its MIC is 328 µg/mL (≈ 993 µM).

**Q.** `COc1cc(-c2c(C)cccc2C)ccc1C(C)C#Cc1c(C)nc(N)nc1N` (stereo not shown) [Compound F26M, 5-[3-(3-methoxy-2′6′-dimethylbiphenyl-4-yl)but-1-yn-1-yl]-6-methylpyrimidine-2,4-diamine] was tested. Which IC50 (hDHFR; Table 4) did it give?
**A.** The IC50 was 3370 ± 15 nM.

**Q.** And the “Selectivity Ratio (IC50 ChDHFR/IC50 hDHFR)” value (ChDHFR-TS; Table 4)?
**A.** The value was 455.

**Q.** What about the IC50 (ChDHFR-TS; Table 4, read-out: IC50 (ChDHFR)) of the same compound?
**A.** The IC50 was 7.4 ± 1.9 nM.

**Q.** `COc1cc(-c2cc(C)cc(C)c2)cc([C@@H](C)C#Cc2c(C)nc(N)nc2N)c1` [Compound 140] was tested. Which “IC50 against CgDHFR” value (CgDHFR) did it give?
**A.** The value was “subnanomolar”.

**Q.** And the IC50 (CgDHFR; [2])?
**A.** Its IC50 is 0.55 ± 0.3 nM.

**Q.** What about the IC50 (CgDHFR; Table 11, read-out: CgDHFR IC50) of the same compound?
**A.** Its IC50 is 0.55 nM.

**Q.** And the “MIC (Cg)” value (C. glabrata; C. glabrata)?
**A.** The value was 3.1 µg/mL (≈ 8.02 µM).

**Q.** What about the “Antifungal activity MIC” value (C. glabrata; Table 11, C. glabrata) of the same compound?
**A.** The value was 3 µg/mL.

**Q.** And the IC50 (MCF-10 cells)?
**A.** Its IC50 is 47000 nM.

**Q.** And the “MIC S. aureus / MRSA” value (S. aureus 13709 (MRSA))?
**A.** Its value is 5.8 µg/mL (≈ 15 µM).

**Q.** And the “MIC MRSA” value (S. aureus 13709 (MRSA); Table 6)?
**A.** Its value is 5.76 µg/mL (≈ 14.9 µM).

**Q.** What about the “MIC S. pyogenes” value (Streptococcus pyogenes) of the same compound?
**A.** Its value is 0.1 µg/mL (≈ 0.259 µM).

**Q.** And the “MIC S. pyogenes” value (Streptococcus pyogenes; Table 6)?
**A.** Its value is 0.097 µg/mL (≈ 0.251 µM).

**Q.** Which IC50 (CgDHFR; Table 3, read-out: CgDHFR IC50) does the source give for `COc1cc(C(C#Cc2cnc(N)nc2N)OC)cc(OC)c1OC` (stereo not shown) [Compound 4, 5-[3-methoxy-3-(3,4,5-trimethoxyphenyl)prop-1-yn-1-yl]pyrimidine-2,4-diamine] here?
**A.** Its IC50 is 450 nM.

**Q.** And the “Antifungal activity MIC” value (C. glabrata; [1])?
**A.** Its value is “Inact”.

**Q.** `CCC(c1cc(OC)c(OC)c(OC)c1)c1cnc(N)nc1N` (racemic) [C7-ethyl TMP (rac), reference compound] was tested. Which IC50 (ChDHFR-TS; read-out: IC50 against ChDHFR) did it give?
**A.** Its IC50 is 4000 nM.

Reference: US8853228B2, “Heterocyclic analogs of propargyl-linked inhibitors of dihydrofolate reductase” (University of Connecticut, priority 2011, dated 2014)
